Results taken from patent publication US10329282B2, “Rho-associated protein kinase inhibitor, pharmaceutical composition comprising the same, as well as preparation method and use thereof” (Beijing Tide Pharmaceutical Co., Ltd., priority 2017, dated 2019).

molecular target: ROCK2 (Homo sapiens (Human), UniProt O75116); test: ROCK2 kinase IC50 assay (CISBIO HTRF KinEASE-STK S2 kit); type: biochemical; details: ROCK2 from Carna Biosciences, 2 h incubation at room temperature
Procedure, shortened: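 ROCK2 reaction with STK-S2 substrate and ATP (5× working solutions 1.5 μM each), 2 h at room temperature; 9-point compound dilutions from 10000 nM. HTRF 665/615 emission ratio gave % inhibition versus kinase and no-kinase controls; IC50 by curve fit.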

Chain of ROCK2 (O75116 1-553): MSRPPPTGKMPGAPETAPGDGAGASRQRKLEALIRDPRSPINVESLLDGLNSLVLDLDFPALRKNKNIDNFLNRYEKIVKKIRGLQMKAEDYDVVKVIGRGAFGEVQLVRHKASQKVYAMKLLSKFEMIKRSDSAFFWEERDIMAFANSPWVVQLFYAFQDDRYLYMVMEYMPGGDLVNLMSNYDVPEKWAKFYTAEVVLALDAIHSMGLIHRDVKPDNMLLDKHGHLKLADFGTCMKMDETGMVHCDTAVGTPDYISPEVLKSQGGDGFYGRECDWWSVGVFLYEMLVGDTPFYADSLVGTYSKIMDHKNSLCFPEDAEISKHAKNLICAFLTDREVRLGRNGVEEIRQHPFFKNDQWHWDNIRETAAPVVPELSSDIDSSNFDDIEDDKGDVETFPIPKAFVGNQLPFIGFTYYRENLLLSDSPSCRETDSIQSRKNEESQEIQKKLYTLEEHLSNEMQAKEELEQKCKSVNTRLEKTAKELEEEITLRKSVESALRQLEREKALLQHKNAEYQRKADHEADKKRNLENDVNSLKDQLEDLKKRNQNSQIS

First: CCN(CC)C(=O)c1cc2ccc(-c3ncc(OC)c(Nc4ccc(-c5cn[nH]c5)cc4)n3)cc2[nH]1 [TDI01823, 6-(4-((4-(1H-pyrazol-4-yl)phenyl)amino)-5-methoxypyrimidin-2-yl)-N,N-diethyl-1H-indole-2-carboxamide]
Second: C[C@H](CN)NC(=O)c1cc2ccc(-c3nccc(Nc4ccc(-c5cn[nH]c5)cc4)n3)cc2[nH]1 [TDI01855, (R)-6-(4-((4-(1H-pyrazol-4-yl)phenyl)amino)pyrimidin-2-yl)-N-(1-aminopropan-2-yl)-1H-indole-2-carboxamide]
The IC50 of the first is 2.3-fold higher: 336 nM for the first, 147 nM for the second. The second is the more potent here.

`N#Cc1cnccc1NC(=O)c1cc2ccc(-c3nccc(Nc4ccc(-c5cn[nH]c5)cc4)n3)cc2[nH]1` [TDI01829B] and `O=C(Nc1ccncc1I)c1cc2ccc(-c3nccc(Nc4ccc(-c5cn[nH]c5)cc4)n3)cc2[nH]1` [TDI01829C] are within 1.5-fold of each other in IC50: 82 nM for the first, 97 nM for the second.

Compared with `O=C(NC1CCN(c2ccncc2Cl)CC1)c1cc2ccc(-c3nccc(Nc4ccc(-c5cn[nH]c5)cc4)n3)cc2[nH]1` [TDI01847B, 6-(4-((4-(1H-pyrazol-4-yl)phenyl)amino)pyrimidin-2-yl)-N-(1-(3-chloropyridin-4-yl)piperidin-4-yl)-1H-indole-2-carboxamide], `C[C@@H](NC(=O)c1cc2ccc(-c3nccc(Nc4ccc(-c5cn[nH]c5)cc4)n3)cc2[nH]1)c1ccncc1` [TDI01849B, (R)-6-(4-((4-(1H-pyrazol-4-yl)phenyl)amino)pyrimidin-2-yl)-N-(1-(pyridin-4-yl)ethyl)-1H-indole-2-carboxamide] is 8.1-fold higher in IC50: 26 nM for the first, 210 nM for the second. The first is the more potent here.

Going from `O=C(c1cc2ccc(-c3nccc(Nc4ccc(-c5cn[nH]c5)cc4)n3)cc2[nH]1)N1CCO[C@@H](CO)C1` [TDI01852, (R)-(6-(4-((4-(1H-pyrazol-4-yl)phenyl)amino)pyrimidin-2-yl)-1H-indel-2-yl)(2-(hydroxymethyl)morpholino)methanone] to `O=C(c1cc2ccc(-c3nccc(Nc4ccc(-c5cn[nH]c5)cc4)n3)cc2[nH]1)N1CCOC[C@H]1CO` [TDI01853, (R)-(6-(4-((4-(1H-pyrazol-4-yl)phenyl)amino)pyrimidin-2-yl)-1H-indol-2-yl)(3-(hydroxymethyl)morpholino)methanone], the IC50 falls from 482 nM to 275 nM (1.8-fold). The second is the more potent here.

Compound `C[C@@H](CN)NC(=O)c1cc2ccc(-c3nccc(Nc4ccc(-c5cn[nH]c5)cc4)n3)cc2[nH]1` [TDI01856, (S)-6-(4-((4-(1H-pyrazol-4-yl)phenyl)amino)pyrimidin-2-yl)-N-(1-aminopropan-2-yl)-1H-indole-2-carboxamide] has an IC50 of 141 nM.
